Results as given in BindingDB's records for doi:10.1016/s0960-894x(99)00335-2 (Merck Research Laboratories, 1999).

Assay: Concentration required for inhibition of serine/threonine protein phosphatase calcineurin (CAN)

| IC50 | Structure (SMILES) |
| --- | --- |
| 14 nM | CC[C@@H]1/C=C(\C)C[C@H](C)C[C@H](OC)[C@H]2O[C@@](O)(C(=O)C(=O)N3CCCC[C@H]3C(=O)O[C@H](/C(C)=C/[C@@H]3CC[C@@H](OCCCc4ccccc4)[C@H](OC)C3)[C@H](C)[C@@H](O)CC1=O)[C@H](C)C[C@@H]2OC [C32-O-Phenalkyl ether derivative of Ascomycin] |
| 7.2 nM | CC[C@@H]1/C=C(\C)C[C@H](C)C[C@H](OC)[C@H]2O[C@@](O)(C(=O)C(=O)N3CCCC[C@H]3C(=O)O[C@H](/C(C)=C/[C@@H]3CC[C@@H](OCCc4ccccc4)[C@H](OC)C3)[C@H](C)[C@@H](O)CC1=O)[C@H](C)C[C@@H]2OC [C32-O-Phenalkyl ether derivative of Ascomycin] |
